Measurements from ChEMBL document CHEMBL5518198, “Three Rounds of Stability-Guided Optimization and Systematical Evaluation of Oncolytic Peptide LTX-315” (J Med Chem, 2024).

What was measured:
[1] = Stability in human serum assessed as compound degradation by measuring increase in fluorescence intensity at 100 uM after 36 to 48 hrs by IQF based assay; format: ADME, cell-free; settings: time 36-48 hrs
[2] = target: Trypsin (Homo sapiens, UniProt P07477+P07478+P35030); experiment: Stability of compound assessed as trypsin (unknown origin) mediated compound degradation by measuring increase in fluorescence intensity at 100 uM after 36 to 48 hrs by IQF based assay; format: ADME, protein assay; settings: time 36-48 hrs
[3] = Stability of compound in mouse A20 cells assessed as compound degradation by measuring increase in fluorescence intensity at 10 uM after 36 to 48 hrs by IQF based assay; format: ADME, cell-based; settings: a20, 10 µM, time 36-48 hrs

Stability [1]: Unstable
Stability [2]: Unstable
Stability [3]: Unstable
Compound: NCCCC[C@H](NC(=O)c1ccccc1N)C(=O)N[C@@H](CCCCN)C(=O)N[C@@H](Cc1c[nH]c2ccccc12)C(=O)N[C@@H](Cc1c[nH]c2ccccc12)C(=O)N[C@@H](CCCCN)C(=O)N[C@@H](CCCCN)C(=O)N[C@@H](Cc1c[nH]c2ccccc12)C(=O)N[C@H](C(=O)N[C@@H](CCCCN)C(=O)N[C@@H](CCCCNc1ccc([N+](=O)[O-])cc1[N+](=O)[O-])C(N)=O)C(c1ccccc1)c1ccccc1
